Assay results as given in ChEMBL document CHEMBL1148509, “Design and semisynthesis of novel fredericamycin A derivatives with an improved antitumor profile” (Bioorg Med Chem Lett, 2006).

Assays:
[1] = test system: Panel (10 carcinoma cell lines); assay: Inhibition of cell viability of panel of 10 cell lines (LCL H460, MACL MCF7, LXFL 529L, LXFA 629L, MEXF 462NL, MEXF 514L, MAXF 401NL, RXF 944L, RXF 486L, UXF 1138L) at 1 ug/mL; type: functional; settings: Homo sapiens
[2] = test system: Panel (12 tumour cell lines); assay: Cytotoxicity against panel of 12 cell lines (LCL H460, MACL MCF7, LXFL 529L, LXFA 629L, MEXF 462NL, MEXF 514L, MAXF 401NL, RXF 944L, RXF 486L, UXF 1138L, PR PC3M, PRCL 22RV1); type: functional; settings: Homo sapiens
Mus musculus [3] = assay: Toxicity in nude mouse xenografted with human UXF1138 at 0.3 mg/kg/day; type: organism-based; settings: in vivo
UXF1138 = assay: Antitumor activity against human UXF1138 cell line xenografted in nude mouse at 0.15 mg/kg/day, ip after 7 days; settings: route intraperitoneal
Mus musculus [4] = assay: Toxicity in nude mouse xenografted with human UXF1138 at 3 mg/kg/day; type: organism-based; settings: in vivo
Mus musculus [5] = assay: Decrease in body weight of nude mouse xenografted with human UXF1138 at 0.15 mg/kg/day, ip after 7 days; type: functional; design: scale not given: the % may be the effect or the level left; settings: route intraperitoneal
Mus musculus [6] = assay: Toxicity in nude mouse xenografted with human UXF1138 at 1 mg/kg/day; type: organism-based; settings: in vivo

Row | Compound | inhibition at 1 µg/mL [1] [%] | IC70 [2] [nM] | also measured
1 | C/C=C/C=C/c1cc2cc3c(c(O)c2c(O)n1)[C@@]1(CC3)C(=O)C2=C(C(=O)c3c(O)c(N4CCOCC4)cc(O)c3C2=O)C1=O | 98 | 77 | 
2 | C/C=C/C=C/c1cc2c(F)c3c(c(O)c2c(O)n1)[C@@]1(CC3)C(=O)c2c(O)c3c(c(O)c2C1=O)C(=O)C(OC)=CC3=O | 91 | 20 | 
3 | C/C=C/C=C/c1cc2c(Br)c3c(c(O)c2c(O)n1)[C@@]1(CC3)C(=O)C2=C(C(=O)c3c(O)c(NCCCC)cc(O)c3C2=O)C1=O | 94 | 302 | 
4 | C/C=C/C=C/c1cc2cc3c(c(O)c2c(O)n1)[C@@]1(CC3)C(=O)C2=C(C(=O)c3c(O)c(N(C)C)cc(O)c3C2=O)C1=O | 96 | 306 | 
5 | COC1=CC(=O)c2c(O)c3c(c(O)c2C1=O)C(=O)[C@]1(CCc2c1c(O)c1c(O)nc(C=O)cc1c2Br)C3=O | 42 |  | 
6 | C/C=C/C=C/c1cc2cc3c(c(O)c2c(O)n1)[C@@]1(CC3)C(=O)C2=C(C(=O)c3c(O)c(NC(C)C)cc(O)c3C2=O)C1=O | 91 | 634 | 
7 | COC1=CC(=O)c2c(O)c3c(c(O)c2C1=O)C(=O)[C@]1(CCc2cc4cc(/C=C/C(C)=O)nc(O)c4c(O)c21)C3=O | 59 |  | 
8 | COC1=CC(=O)c2c(O)c3c(c(O)c2C1=O)C(=O)[C@]1(CCc2cc4cc(C=O)nc(O)c4c(O)c21)C3=O | 31 |  | 
9 | COC1=CC(=O)c2c(O)c3c(c(O)c2C1=O)C(=O)[C@]1(CCc2c1c(O)c1c(O)nc(/C=N/N4CCN(C)CC4)cc1c2Br)C3=O | 73 | 658 | 
10 | COC1=CC(=O)c2c(O)c3c(c(O)c2C1=O)C(=O)[C@]1(CCc2c1c(O)c1c(O)nc(/C=C/c4csc(NC(C)=O)n4)cc1c2Br)C3=O | 83 | 512 | 
11 | C/C=C/C=C/c1cc2c(I)c3c(c(O)c2c(O)n1)[C@@]1(CC3)C(=O)c2c(O)c3c(c(O)c2C1=O)C(=O)C(OC)=CC3=O | 93 | 11 | Activity (Mus musculus [3]): Non-toxic; Activity (UXF1138): 51%; Activity (Mus musculus [4]): Toxic; Activity (Mus musculus [5]): -3.1%; Activity (Mus musculus [6]): Toxic
12 | COC1=CC(=O)c2c(O)c3c(c(O)c2C1=O)C(=O)[C@]1(CCc2c1c(O)c1c(O)nc(/C=C/c4csc(N)n4)cc1c2Br)C3=O | 77 | 612 | 
13 | CC[C@@]1(O)C(=O)OCc2c1cc1n(c2=O)Cc2cc3ccccc3nc2-1 [CAMPTOTHECIN] |  | 8.6 | 
14 | COc1cccc2c1C(=O)c1c(O)c3c(c(O)c1C2=O)C[C@@](O)(C(=O)CO)C[C@@H]3O[C@H]1C[C@H](N)[C@H](O)[C@H](C)O1 [DOXORUBICIN] | 91 | 39 | 
15 | C/C=C/C=C/c1cc2cc3c(c(O)c2c(O)n1)[C@@]1(CC3)C(=O)C2=C(C(=O)c3c(O)c(OCCN(C)C)cc(O)c3C2=O)C1=O | 94 | 1020 | 
16 | C/C=C/C=C/c1cc2c(Br)c3c(c(O)c2c(O)n1)[C@@]1(CC3)C(=O)c2c(O)c3c(c(O)c2C1=O)C(=O)C(OCC)=CC3=O | 97 | 160 | 
17 | C/C=C/C=C/c1cc2c(Br)c3c(c(O)c2c(O)n1)[C@@]1(CC3)C(=O)c2c(O)c3c(c(O)c2C1=O)C(=O)C(OC)=CC3=O | 92 | 8.1 | 
18 | COC1=CC(=O)c2c(O)c3c(c(O)c2C1=O)C(=O)[C@]1(CCc2c1c(O)c1c(O)nc(/C=N/OC(C)C)cc1c2Br)C3=O | 91 | 74 | 
19 | COC1=CC(=O)c2c(O)c3c(c(O)c2C1=O)C(=O)[C@]1(CCc2c1c(O)c1c(O)nc(C=O)cc1c2Cl)C3=O | 25 |  | 
20 | C/C=C/C=C/c1cc2c(Br)c3c(c(O)c2c(O)n1)[C@@]1(CC3)C(=O)C2=C(C(=O)c3c(O)c(NC4CC4)cc(O)c3C2=O)C1=O | 97 | 96 | 
21 | COC1=CC(=O)c2c(O)c3c(c(O)c2C1=O)C(=O)[C@]1(CCc2c1c(O)c1c(O)nc(/C=C/c4csc(C)n4)cc1c2Br)C3=O | 85 | 124 | 
22 | COC1=CC(=O)c2c(O)c3c(c(O)c2C1=O)C(=O)[C@]1(CCc2c1c(O)c1c(O)nc(/C=N/OCc4ccccc4)cc1c2Br)C3=O | 91 | 50 | 
23 | C/C=C/C=C/c1cc2cc3c(c(O)c2c(=O)[nH]1)[C@@]1(CC3)C(=O)c2c(O)c3c(c(O)c2C1=O)C(=O)C(OC)=CC3=O [FDM A] | 82 | 517 | 
24 | COC1=CC(=O)c2c(O)c3c(c(O)c2C1=O)C(=O)[C@]1(CCc2cc4cc(C(O)C(O)C(O)C(C)O)nc(O)c4c(O)c21)C3=O (stereo partly drawn) | 85 | 186 | 
25 | C/C=C/C=C/c1cc2c(Cl)c3c(c(O)c2c(O)n1)[C@@]1(CC3)C(=O)c2c(O)c3c(c(O)c2C1=O)C(=O)C(OC)=CC3=O | 91 | 14 | 
26 | CC(=O)O[C@H]1C(=O)[C@@]2(C)[C@H]([C@H](OC(=O)c3ccccc3)[C@]3(O)C[C@H](OC(=O)[C@H](O)[C@@H](NC(=O)c4ccccc4)c4ccccc4)C(C)=C1C3(C)C)[C@]1(OC(C)=O)CO[C@@H]1C[C@@H]2O [PACLITAXEL] |  | 0.7 | 
27 | COC1=CC(=O)c2c(O)c3c(c(O)c2C1=O)C(=O)[C@]1(CCc2c1c(O)c1c(O)nc(/C=N/OCCN4CCOCC4)cc1c2Br)C3=O | 88 | 101 | 
